# US20220389019A1, “TrkB POSITIVE ALLOSTERIC MODULATORS” (Université de Strasbourg, priority 2019, published 2022)
# Test system: TrkB
# Experiment: TrkB phosphorylation assay: potentiation of BDNF-induced TrkB phosphorylation in cortical neurons
# Assay type: cell-based
# Conditions: potentation at a PAM concentration of 10 nM of 0.4 nM BDNF-induced TrkB phosphorylation in cortical neurons
# Source text: It is meant by “positive allosteric modulator” (PAM), also known as allosteric enhancer or potentiator, a compound that induces an amplification of the effect of receptor's response to the primary ligand without directly activating the receptor. Within this invention, PAM TrkB activity is related to the potentation of BDNF effects on the functional activity of the TrkB receptor, measured in vitro or in vivo by mean of a specific TrkB receptor phosphorylation assay.
# In Vitro Activity of LIT-TB Derivatives in a TrkB Phosphorylation Assay
row,SMILES,PAM TrkB activity
1,"O=C(CCc1nnc2ccc(N3CCCCC3)nn12)NC1CCN(Cc2ccccc2)CC1 [LIT-TB002, N-(1-benzylpiperidin-4-yl)-3-[6-(piperidin-1-yl)-[1,2,4]triazolo[4,3-b]pyridazin-3-yl]propanamide]",++ (++: 20-35%)
2,"O=C(CCc1nnc2ccc(N3CCC(N4CCCCC4)CC3)nn12)NC1CCN(Cc2ccccc2)CC1 [LIT-TB003, 3-(6-([1,4′-bipiperidin]-1′-yl)-[1,2,4]triazolo[4,3-b]pyridazin-3-yl)-N-(1-benzylpiperidin-4-yl) propanamide]",++ (++: 20-35%)
3,"O=C(CCc1nnc2ccc(N3CCN(c4ncccn4)CC3)nn12)NC1CCN(Cc2ccccc2)CC1 [LIT-TB004, N-(1-benzylpiperidin-4-yl)-3-(6-(4-(pyrimidin-2-yl)piperazin-1-yl)-[1,2,4]triazolo[4,3-b]pyridazin-3-yl)propanamide]",+ (+: <20%)
4,O=C(CCc1nnc2ccc(N3CCN(Cc4ccccc4)CC3)nn12)NC1CCN(Cc2ccccc2)CC1 [LIT-TB005],+++ (+++: >35%)
5,"CN1CCN(c2ccc3nnc(CCC(=O)NC4CCN(Cc5ccccc5)CC4)n3c2)CC1 [LIT-TB006, N-(1-benzylpiperidin-4-yl)-3-(6-(4-methylpiperazin-1-yl)-[1,2,4]triazolo[4,3-a]pyridin-3-yl)propanamide]",+++ (+++: >35%)
6,"CN1CCN(c2ccc3ncc(CCC(=O)NC4CCN(Cc5ccccc5)CC4)n3c2)CC1 [LIT-TB013, N-(1-benzylpiperidin-4-yl)-3-(6-(4-methylpiperazin-1-yl)imidazo[1,2-a]pyridin-3-yl)propanamide]",+++ (+++: >35%)
7,"CN1CCN(c2ccc3ncc(CCC(=O)NC4CCN(Cc5ccccc5)CC4)n3n2)CC1 [LIT-TB014, N-(1-benzylpiperidin-4-yl)-3-(6-(4-methylpiperazin-1-yl)imidazo[1,2-b]pyridazin-3-yl)propanamide]",++ (++: 20-35%)
8,"CN1CCN(c2ccc3nnc(CCCNC4CCN(Cc5ccccc5)CC4)n3n2)CC1 [LIT-TB015, 1-benzyl-N-(3-(6-(4-methylpiperazin-1-yl)-[1,2,4]triazolo[4,3-b]pyridazin-3-yl)propyl)piperidin-4-amine]",+++ (+++: >35%)
9,"CN1CCC(NC(=O)CCc2nnc3ccc(N4CCN(C)CC4)nn23)CC1 [LIT-TB016, 3-[6-(4-methylpiperazin-1-yl)-[1,2,4]triazolo[4,3-b]pyridazin-3-yl]-N-(1-methyl-piperidin-4-yl)propanamide]",+++ (+++: >35%)
10,"COc1ccc(CN2CCC(NC(=O)CCc3nnc4ccc(N5CCN(C)CC5)nn34)CC2)cc1 [LIT-TB017, N-{1-[(4-methoxyphenyl)methyl]piperidin-4-yl}-3-[6-(4-methylpiperazin-1-yl)-[1,2,4]triazolo [4,3-b]pyridazin-3-yl]propanamide]",+++ (+++: >35%)
11,"CN1CCN(c2ccc3nnc(CCC(=O)NC4CCN(Cc5cccc(Cl)c5)CC4)n3n2)CC1 [LIT-TB018, N-{1-[(3-chlorophenyl)methyl]piperidin-4-yl}-3-[6-(4-methylpiperazin-1-yl)-[1,2,4]triazolo[4,3-b]pyridazin-3-yl]propanamide]",+++ (+++: >35%)
12,"CN1CCN(c2ccc3nnc(CCC(=O)NC4CCN(Cc5ccccc5Cl)CC4)n3n2)CC1 [LIT-TB019, N-{1-[(2-chlorophenyl)methyl]piperidin-4-yl}-3-[6-(4-methylpiperazin-1-yl)-[1,2,4]triazolo[4,3-b]pyridazin-3-yl]propanamide]",+++ (+++: >35%)
13,"CN1CCN(c2ccc3nnc(CCC(=O)NC4CCN(Cc5ccc(F)cc5)CC4)n3n2)CC1 [LIT-TB020, N-{1-[(4-fluorophenyl)methyl]piperidin-4-yl}-3-[6-(4-methylpiperazin-1-yl)-[1,2,4]triazolo[4,3-b]pyridazin-3-yl]propanamide]",+++ (+++: >35%)
14,"CN1CCN(c2ccc3nnc(CCC(=O)NC4CCNCC4)n3n2)CC1 [LIT-TB021, 3-(6-(4-methylpiperazin-1-yl)-[1,2,4]triazolo[4,3-b]pyridazin-3-yl)-N-(piperidin-4-yl)propanamide]",+ (+: <20%)
15,"CN1CCN(c2ccc3nnc(CCC(=O)NC4CCN(Cc5ccccc5F)CC4)n3n2)CC1 [LIT-TB022, N-{1-[(2-fluorophenyl)methyl]piperidin-4-yl}-3-[6-(4-methylpiperazin-1-yl)-[1,2,4]triazolo[4,3-b]pyridazin-3-yl]propanamide]",+++ (+++: >35%)
16,"CC(c1ccccc1)N1CCC(NC(=O)CCc2nnc3ccc(N4CCN(C)CC4)nn23)CC1 (stereo not shown) [LIT-TB023, 3-[6-(4-methylpiperazin-1-yl)-[1,2,4]triazolo[4,3-b]pyridazin-3-yl]-N-[1-(1-phenylethyl)piperidin-4-yl]propanamide]",+ (+: <20%)

row,SMILES,PAM TrkB activity
1,"Cc1ccccc1CN1CCC(NC(=O)CCc2nnc3ccc(N4CCN(C)CC4)nn23)CC1 [LIT-TB024, N-{1-[(2-methylphenyl)methyl]piperidin-4-yl}-3-[6-(4-methylpiperazin-1-yl)-[1,2,4]triazolo[4,3-b]pyridazin-3-yl]propanamide]",+++ (+++: >35%)
2,"CN1CCN(c2ccc3nnc(CCC(=O)NC4CCN(Cc5ccncc5)CC4)n3n2)CC1 [LIT-TB025, 3-[6-(4-methylpiperazin-1-yl)-[1,2,4]triazolo[4,3-b]pyridazin-3-yl]-N-[1-(pyridin-4-ylmethyl)piperidin-4-yl]propanamide]",+ (+: <20%)
3,"CN1CCN(c2ccc3nnc(CCC(=O)NC4CCN(Cc5ccc(Cl)c(Cl)c5)CC4)n3n2)CC1 [LIT-TB026, N-{1-[(3,4-dichlorophenyl)methyl]piperidin-4-yl}-3-[6-(4-methylpiperazin-1-yl)-[1,2,4]triazolo[4,3-b]pyridazin-3-yl]propanamide]",+ (+: <20%)
4,"CN1CCN(c2ccc3nnc(CCC(=O)NC4CCN(C(=O)c5ccccc5)CC4)n3n2)CC1.Cl [LIT-TB027, N-(1-benzoylpiperidin-4-yl)-3-[6-(4-methylpiperazin-1-yl)-[1,2,4]triazolo[4,3-b]pyridazin-3-yl]propanamide hydrochloride]",+ (+: <20%)
5,"CN1CCN(c2ccc3nnc(CCC(=O)NC4CCN(Cc5ccc(Cl)cc5)CC4)n3n2)CC1 [LIT-TB028, N-{1-[(4-chlorophenyl)methyl]piperidin-4-yl}-3-[6-(4-methylpiperazin-1-yl)-[1,2,4]triazolo[4,3-b]pyridazin-3-yl]propanamide]",+ (+: <20%)
6,"CN1CCN(c2ccc3nnc(CCC(=O)NC4CCN(CC5CCCCC5)CC4)n3n2)CC1 [LIT-TB031, N-[1-(cyclohexylmethyl)piperidin-4-yl]-3-[6-(4-methylpiperazin-1-yl)-[1,2,4]triazolo[4,3-b]pyridazin-3-yl]propanamide]",+++ (+++: >35%)
7,"Cc1[nH]cnc1CN1CCC(NC(=O)CCc2nnc3ccc(N4CCN(C)CC4)nn23)CC1 [LIT-TB032, N-{1-[(5-methyl-1H-imidazol-4-yl)methyl]piperidin-4-yl}-3-[6-(4-methylpiperazin-1-yl)-[1,2,4]triazolo [4,3-b]pyridazin-3-yl]propanamide]",+++ (+++: >35%)
8,"CN1CCN(c2ccc3nnc(CCC(=O)NC4CCN(Cc5ccccc5)C(=O)C4)n3n2)CC1 (stereo not shown) [LIT-TB033, N-(1-benzyl-2-oxopiperidin-4-yl)-3-[6-(4-methylpiperazin-1-yl)-[1,2,4]triazolo[4,3-b]pyridazin-3-yl]propanamide]",+ (+: <20%)
9,"CN1CCN(c2ccc3nnc(CCC(=O)NC4CCC(Cc5ccccc5)CC4)n3n2)CC1 (stereo not shown) [LIT-TB034, N-(4-benzylcyclohexyl)-3-[6-(4-methylpiperazin-1-yl)-[1,2,4]triazolo[4,3-b]pyridazin-3-yl]propanamide]",+ (+: <20%)
10,"CN1CCN(c2ccc3nnc(CCC(=O)NC4CCN(c5ccccc5)CC4)n3n2)CC1 [LIT-TB035, 3-[6-(4-methylpiperazin-1-yl)-[1,2,4]triazolo[4,3-b]pyridazin-3-yl]-N-(1-phenylpiperidin-4-yl)propanamide]",++ (++: 20-35%)
11,"CN1CCN(c2ccc3nnc(CCC(=O)NC4CCN(Cc5ccc(F)cc5F)CC4)n3n2)CC1 [LIT-TB040, N-{1-[(2,4-difluorophenyl)methyl]piperidin-4-yl}-3-[6-(4-methylpiperazin-1-yl)-[1,2,4]triazolo[4,3-b]pyridazin-3-yl]propanamide]",++ (++: 20-35%)
12,"Cc1cc(F)ccc1CN1CCC(NC(=O)CCc2nnc3ccc(N4CCN(C)CC4)nn23)CC1 [LIT-TB044, N-{1-[(4-fluoro-2-methylphenyl)methyl]piperidin-4-yl}-3-[6-(4-methylpiperazin-1-yl)-[1,2,4]triazolo[4,3-b]pyridazin-3-yl]propanamide]",++ (++: 20-35%)
13,"COc1ccc(CN2CCC(NC(=O)CCc3nnc4ccc(N5CCN(C)CC5)nn34)CC2)c(C)c1.Cl.Cl [LIT-TB045, N-{1-[(4-methoxy-2-methylphenyl)methyl]piperidin-4-yl}-3-[6-(4-methylpiperazin-1-yl)-[1,2,4]triazolo[4,3-b]pyridazin-3-yl]propanamide dihydrochloride]",+++ (+++: >35%)
14,"COc1ccc(CN2CCC(NC(=O)CCc3nnc4ccc(N5CCN(C)CC5)nn34)CC2)c(F)c1.Cl.Cl [LIT-TB046, N-{1-[(2-fluoro-4-methoxyphenyl)methyl]piperidin-4-yl}-3-[6-(4-methylpiperazin-1-yl)-[1,2,4]triazolo[4,3-b]pyridazin-3-yl]propanamide dihydrochloride]",+ (+: <20%)
15,"CN1CCN(c2ccc3nnc(CCC(=O)N[C@@H]4CCN(Cc5ccccc5)C[C@@H]4F)n3n2)CC1 [LIT-TB047, N-[(3S,4R)-1-benzyl-3-fluoropiperidin-4-yl]-3-[6-(4-methylpiperazin-1-yl)-[1,2,4]triazolo[4,3-b]pyridazin-3-yl]propanamide]",++ (++: 20-35%)
